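Following 48 hours of exposure in 96-well plates, responses at five concentrations were used to interpolate endpoints linearly. GI50: concentration for 50% inhibition of growth.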 Activity calls are given as the source filed them. No stated cut-off is given here; in the data, active = GI50 up to about 1.1 µM and inactive = higher.
Key:
Experiment in all cases: NCI-60 cell line screen, 48 h
K562 = test system: K562
U-251 = test system: U-251
HOP-92 = test system: HOP-92
NCI-H226 = test system: NCI-H226
HOP-62 = test system: HOP-62
SK-MEL-28 = test system: SK-MEL-28
OVCAR-5 = test system: OVCAR-5
NCI-H522 = test system: NCI-H522
CCRF-CEM = test system: CCRF-CEM
IGROV-1 = test system: IGROV-1
SNB-78 = test system: SNB-78
SK-MEL-2 = test system: SK-MEL-2
EKVX = test system: EKVX
CAKI-1 = test system: CAKI-1
SN12C = test system: SN12C
UO-31 = test system: UO-31
TK-10 = test system: TK-10
SF-295 = test system: SF-295
HL-60 = test system: HL-60

Structure (SMILES)	GI50 (K562)	GI50 (U-251)	GI50 (HOP-92)	GI50 (NCI-H226)	GI50 (HOP-62)	GI50 (SK-MEL-28)	GI50 (OVCAR-5)	GI50 (NCI-H522)	GI50 (CCRF-CEM)	GI50 (IGROV-1)	GI50 (SNB-78)	GI50 (SK-MEL-2)	GI50 (EKVX)	GI50 (CAKI-1)	GI50 (SN12C)	GI50 (UO-31)	GI50 (TK-10)	GI50 (SF-295)	GI50 (HL-60)
COc1ccc(CCc2cc(OC)c(O)c(OC)c2)cc1	33 µM (inactive)	41.8 µM (inactive)	66.8 µM (inactive)	41.8 µM (inactive)	98.6 µM (inactive)	19.6 µM (inactive)	44 µM (inactive)	29.7 µM (inactive)	77.1 µM (inactive)	> 100 µM (inactive)	30.9 µM (inactive)	53 µM (inactive)	> 100 µM (inactive)	42 µM (inactive)	> 100 µM (inactive)	42.6 µM (inactive)			
O=C(O)C1CCC(=O)N1C(=O)COc1cc(Cl)c(Cl)cc1Cl (configuration not stated)		> 100 µM (inactive)	82 µM (inactive)	> 100 µM (inactive)		> 100 µM (inactive)	> 100 µM (inactive)	> 100 µM (inactive)		> 100 µM (inactive)	> 100 µM (inactive)		> 100 µM (inactive)	> 100 µM (inactive)	> 100 µM (inactive)	> 100 µM (inactive)	> 100 µM (inactive)	> 100 µM (inactive)	
CCCCC1CC(c2ccc(Cl)cc2)=NO1 (configuration not stated)	> 100 µM (inactive)	> 100 µM (inactive)	> 100 µM (inactive)	> 100 µM (inactive)	> 100 µM (inactive)	> 100 µM (inactive)	> 100 µM (inactive)	> 100 µM (inactive)	> 100 µM (inactive)	> 100 µM (inactive)	> 100 µM (inactive)	> 100 µM (inactive)	> 100 µM (inactive)	> 100 µM (inactive)	> 100 µM (inactive)	> 100 µM (inactive)	> 100 µM (inactive)	> 100 µM (inactive)	85.3 µM (inactive)
COCCN1C2=CCCCC2=Nc2c(N)nc(N)nc21	> 100 µM (inactive)	> 100 µM (inactive)	> 100 µM (inactive)	> 100 µM (inactive)	> 100 µM (inactive)	> 100 µM (inactive)	> 100 µM (inactive)	> 100 µM (inactive)	> 100 µM (inactive)	> 100 µM (inactive)	> 100 µM (inactive)	> 100 µM (inactive)		> 100 µM (inactive)	> 100 µM (inactive)	> 100 µM (inactive)	> 100 µM (inactive)	> 100 µM (inactive)	> 100 µM (inactive)
Cc1ccccc1-n1c(C)nc2c1C(=O)c1ccccc1C2=O	37.7 µM (inactive)	72.1 µM (inactive)		48.3 µM (inactive)	> 100 µM (inactive)	> 100 µM (inactive)	72.3 µM (inactive)	21.2 µM (inactive)	50.2 µM (inactive)		58.2 µM (inactive)	> 100 µM (inactive)	> 100 µM (inactive)	42.7 µM (inactive)	52.4 µM (inactive)	39.2 µM (inactive)	> 100 µM (inactive)	67 µM (inactive)	20.9 µM (inactive)
CC#CC1C2CCCC1(CSc1ccccc1)NC(=O)O2 (configuration not stated)	> 100 µM (inactive)	> 100 µM (inactive)	> 100 µM (inactive)	> 100 µM (inactive)	> 100 µM (inactive)		> 100 µM (inactive)	> 100 µM (inactive)		> 100 µM (inactive)	> 100 µM (inactive)	> 100 µM (inactive)	> 100 µM (inactive)	> 100 µM (inactive)	> 100 µM (inactive)	> 100 µM (inactive)	> 100 µM (inactive)	> 100 µM (inactive)	> 100 µM (inactive)
C=C1C(=O)OC2/C=C(\C)C3OC3/C=C(/C(=O)OC)C(O)C(OC(=O)C3(C)OC3C)C12 (configuration not stated)	0.685 µM (active)	4.58 µM (inactive)	2.86 µM (inactive)	15.1 µM (inactive)	17.7 µM (inactive)	1.52 µM (inactive)	16.7 µM (inactive)	0.193 µM (active)	0.397 µM (active)	2.3 µM (inactive)	1.79 µM (inactive)	2.48 µM (inactive)	2.58 µM (inactive)	1.08 µM (active)	2.39 µM (inactive)	11.2 µM (inactive)	2.74 µM (inactive)	13.6 µM (inactive)	
O=C(c1ccc(Cl)cc1Cl)N(/N=C/C=C/c1ccccc1)c1nnc(-c2ccccc2)c(-c2ccccc2)n1	> 100 µM (inactive)	> 100 µM (inactive)		> 100 µM (inactive)	> 100 µM (inactive)	> 100 µM (inactive)	> 100 µM (inactive)	21.8 µM (inactive)	> 100 µM (inactive)	> 100 µM (inactive)	> 100 µM (inactive)	> 100 µM (inactive)	> 100 µM (inactive)		> 100 µM (inactive)	76.4 µM (inactive)	> 100 µM (inactive)	> 100 µM (inactive)	> 100 µM (inactive)
O=c1c2ccccc2nc(-c2ccccc2)n1NC1OC(CO)C(O)C(O)C1O (configuration not stated)	> 100 µM (inactive)	> 100 µM (inactive)	> 100 µM (inactive)	> 100 µM (inactive)	> 100 µM (inactive)	> 100 µM (inactive)	> 100 µM (inactive)	> 100 µM (inactive)	> 100 µM (inactive)	> 100 µM (inactive)	> 100 µM (inactive)	> 100 µM (inactive)	> 100 µM (inactive)	> 100 µM (inactive)	> 100 µM (inactive)	> 100 µM (inactive)	> 100 µM (inactive)	> 100 µM (inactive)	> 100 µM (inactive)
O=C1[C@@H]2C(c3c(Cl)cccc3Cl)=NO[C@@H]2C(=O)N1c1ccc(Cc2ccc(N3C(=O)[C@H]4C(c5c(Cl)cccc5Cl)=NO[C@H]4C3=O)cc2)cc1	> 100 µM (inactive)	> 100 µM (inactive)	> 100 µM (inactive)	> 100 µM (inactive)	> 100 µM (inactive)	> 100 µM (inactive)	> 100 µM (inactive)		> 100 µM (inactive)	> 100 µM (inactive)	> 100 µM (inactive)	> 100 µM (inactive)	> 100 µM (inactive)	> 100 µM (inactive)	> 100 µM (inactive)	90.6 µM (inactive)	> 100 µM (inactive)	> 100 µM (inactive)	> 100 µM (inactive)
COc1cccc(N2C(=O)[C@H]3CC(C)c4c([nH]c5ccccc45)[C@H]3C2=O)c1 (some centres not stated)	46 µM (inactive)	38.5 µM (inactive)	20.7 µM (inactive)	93.5 µM (inactive)	16.8 µM (inactive)	62.4 µM (inactive)		24.9 µM (inactive)	64.4 µM (inactive)	> 100 µM (inactive)	33.3 µM (inactive)	27.5 µM (inactive)	> 100 µM (inactive)	39.6 µM (inactive)	78 µM (inactive)	84.7 µM (inactive)	55.7 µM (inactive)	23.3 µM (inactive)	> 100 µM (inactive)
CC(C)=CCC(OC(=O)C=C(C)C)c1cc(O)c2c(c1O)C(=O)C=CC2=O (configuration not stated)	0.27 µM (active)	3.08 µM (inactive)	0.469 µM (active)	2.97 µM (inactive)	12.8 µM (inactive)	0.853 µM (active)	3.89 µM (inactive)		0.0208 µM (active)	2.04 µM (inactive)	2.07 µM (inactive)	2.01 µM (inactive)	0.933 µM (active)	0.64 µM (active)	1.04 µM (active)	3.3 µM (inactive)		2.95 µM (inactive)	0.0419 µM (active)
c1cc2[se][se]c3c4cccc5[se][se]c(c(c1)c23)c54	> 100 µM (inactive)	> 100 µM (inactive)	> 100 µM (inactive)	> 100 µM (inactive)	> 100 µM (inactive)	> 100 µM (inactive)	> 100 µM (inactive)	> 100 µM (inactive)	> 100 µM (inactive)	> 100 µM (inactive)	> 100 µM (inactive)	> 100 µM (inactive)		> 100 µM (inactive)	> 100 µM (inactive)	> 100 µM (inactive)	> 100 µM (inactive)	> 100 µM (inactive)	> 100 µM (inactive)
COc1cc(/N=N\c2ccc(OC)c(S(=O)(=O)O)c2)c(C)cc1/N=N\c1ccc(/C=C/c2ccc(/N=[N+](/[O-])c3ccc(/C=C/c4ccc(/N=N/c5cc(C)c(/N=N\c6ccc(OC)c(S(=O)(=O)O)c6)cc5OC)cc4S(=O)(=O)O)c(S(=O)(=O)O)c3)cc2S(=O)(=O)O)c(S(=O)(=O)O)c1	> 100 µM (inactive)	> 100 µM (inactive)	> 75.2 µM (inactive)	> 52.1 µM (inactive)	> 100 µM (inactive)	> 100 µM (inactive)	> 100 µM (inactive)	> 100 µM (inactive)	> 100 µM (inactive)	> 100 µM (inactive)	> 100 µM (inactive)	> 100 µM (inactive)	> 100 µM (inactive)		> 100 µM (inactive)	> 100 µM (inactive)		> 100 µM (inactive)	69.8 µM (inactive)
O=C(O)c1cc(=O)c2cc(C(=O)c3cccs3)c(Cl)c(Cl)c2o1	> 100 µM (inactive)	> 100 µM (inactive)	> 100 µM (inactive)	> 100 µM (inactive)	> 100 µM (inactive)	> 100 µM (inactive)	> 100 µM (inactive)	> 100 µM (inactive)	> 100 µM (inactive)	> 100 µM (inactive)	> 100 µM (inactive)	> 100 µM (inactive)	> 100 µM (inactive)	> 100 µM (inactive)	> 100 µM (inactive)	> 100 µM (inactive)	> 100 µM (inactive)	> 100 µM (inactive)	> 100 µM (inactive)
